Results taken from publication PMC10850145, “Hormonal steroids induce multidrug resistance and stress response genes in Neisseria gonorrhoeae by binding to MtrR” (Nature Communications, 2024).
“And” between values parts separate entries of the source, which are not always exact repeats. Equal values may be shown once. Read-outs that look alike come from different tables or passages of the source.

Tested on: mtrC-lacZ expression
Format: cell-based, Neisseria gonorrhoeae
Details: for Plate-6 (Testosterone) Miller units, Mean / Plate-6 (Testosterone) Miller units: left (mtrC) half of sheet; for β-galactosidase activity, Mean / β-galactosidase activity, single replicate: mtrCDE block (c1-c37), ΔmtrR + mtrR R176E in trans
[1] = WT, testosterone 6.25 µM, right block Plate-4
[2] = WT, testosterone 25 µM, right block Plate-4
[3] = WT, testosterone 50 µM, right block Plate-4
[4] = fourth strain (lower plate half, wells 7-12; not named), testosterone 6.25 µM, right block Plate-4
[5] = fourth strain (lower plate half, wells 7-12; not named), testosterone 12.5 µM, right block Plate-4
[6] = mtrC-lacZ, ΔmtrR + mtrR D171A in trans, 6.25 µM hormone, single replicate
[7] = mtrC-lacZ, ΔmtrR + mtrR D171A in trans, 12.5 µM hormone, single replicate
[8] = mtrC-lacZ, ΔmtrR + mtrR D171A in trans, 25 µM hormone, single replicate
[9] = mtrC-lacZ, ΔmtrR + mtrR D171A in trans, 50 µM hormone, single replicate
[10] = mtrC-lacZ, ΔmtrR + mtrR WT in trans, 6.25 µM hormone, single replicate
[11] = mtrC-lacZ, ΔmtrR + mtrR WT in trans, 12.5 µM hormone, single replicate
[12] = mtrC-lacZ, ΔmtrR + mtrR WT in trans, 25 µM hormone, single replicate
[13] = mtrC-lacZ, ΔmtrR + mtrR WT in trans, 50 µM hormone, single replicate
[14] = mtrCDE, fourth strain (lower plate half, wells 7-12; not named), testosterone 1 µM, left block Plate-4
[15] = mtrCDE, fourth strain (lower plate half, wells 7-12; not named), testosterone 10 µM, left block Plate-4
[16] = mtrCDE, fourth strain (lower plate half, wells 7-12; not named), testosterone 25 µM, left block Plate-4
[17] = mtrCDE, fourth strain (lower plate half, wells 7-12; not named), testosterone 50 µM, left block Plate-4
[18] = mtrCDE, fourth strain (lower plate half, wells 7-12; not named), testosterone 100 µM, left block Plate-4

C[C@]12CC[C@H]3[C@@H](CCC4=CC(=O)CC[C@@]43C)[C@@H]1CC[C@@H]2O [Testosterone, testosterone]
Miller units, Mean (6.25 µM hormone, plate columns 1-6 (WT), mean of plate rows 1-4 (mtrC)): 141 Miller units | Miller units (6.25 µM hormone, plate columns 1-6 (WT), plate rows 1-4 (mtrC), single well): 164 Miller units and 134 Miller units and 127 Miller units and 139 Miller units | Miller units (6.25 µM hormone, plate columns 7-12 (second strain not given), plate rows 1-4 (mtrC), single well): 276 Miller units and 252 Miller units and 246 Miller units and 285 Miller units | Miller units, Mean (6.25 µM hormone, plate columns 7-12 (second strain), mean of plate rows 1-4 (mtrC)): 265 Miller units | Plate-6 (Testosterone) Miller units, Mean (6.25 µM, plate column 3, mean of plate rows 5-8): 43 Miller units | Plate-6 (Testosterone) Miller units (6.25 µM, plate column 3, plate rows 5-8, single wells): 39 Miller units and 46 Miller units and 47 Miller units | Plate-6 (Testosterone) Miller units, Mean (6.25 µM, plate column 9, mean of plate rows 5-8): 64 Miller units | Plate-6 (Testosterone) Miller units (6.25 µM, single wells): 55 Miller units and 57 Miller units and 65 Miller units and 80 Miller units | Miller units, Mean (12.5 µM hormone, plate columns 1-6 (WT), mean of plate rows 1-4 (mtrC)): 166 Miller units | Miller units (12.5 µM hormone, plate columns 1-6 (WT), plate rows 1-4 (mtrC), single well): 186 Miller units and 164 Miller units and 155 Miller units and 161 Miller units | Miller units (12.5 µM hormone, plate columns 7-12 (second strain not given), plate rows 1-4 (mtrC), single well): 296 Miller units and 248 Miller units and 237 Miller units and 196 Miller units | Miller units, Mean (12.5 µM hormone, plate columns 7-12 (second strain), mean of plate rows 1-4 (mtrC)): 244 Miller units | Plate-6 (Testosterone) Miller units, Mean (12.5 µM, plate column 4, mean of plate rows 5-8): 52 Miller units | Plate-6 (Testosterone) Miller units (12.5 µM, plate column 4, plate rows 5-8, single wells): 51 Miller units and 50 Miller units and 56 Miller units and 52 Miller units | Plate-6 (Testosterone) Miller units, Mean (12.5 µM, plate column 10, mean of plate rows 5-8): 62 Miller units | Plate-6 (Testosterone) Miller units (12.5 µM, plate column 10, plate rows 5-8, single wells): 58 Miller units and 54 Miller units and 63 Miller units and 74 Miller units | Miller units, Mean (25 µM hormone, plate columns 1-6 (WT), mean of plate rows 1-4 (mtrC)): 178 Miller units | Miller units (25 µM hormone, plate columns 1-6 (WT), plate rows 1-4 (mtrC), single well): 189 Miller units and 186 Miller units and 165 Miller units and 170 Miller units | Miller units (25 µM hormone, plate columns 7-12 (second strain not given), plate rows 1-4 (mtrC), single well): 284 Miller units and 276 Miller units and 289 Miller units and 254 Miller units | Miller units, Mean (25 µM hormone, plate columns 7-12 (second strain), mean of plate rows 1-4 (mtrC)): 276 Miller units | Plate-6 (Testosterone) Miller units, Mean (25 µM, plate column 5, mean of plate rows 5-8): 63 Miller units | Plate-6 (Testosterone) Miller units (25 µM, plate column 5, plate rows 5-8, single wells): 68 Miller units and 55 Miller units and 57 Miller units and 70 Miller units | Plate-6 (Testosterone) Miller units, Mean (25 µM, plate column 11, mean of plate rows 5-8): 65 Miller units | Plate-6 (Testosterone) Miller units (25 µM, plate column 11, plate rows 5-8, single wells): 64 Miller units and 60 Miller units and 68 Miller units and 67 Miller units | Miller units, Mean (50 µM hormone, plate columns 1-6 (WT), mean of plate rows 1-4 (mtrC)): 195 Miller units | Miller units (50 µM hormone, plate columns 1-6 (WT), plate rows 1-4 (mtrC), single well): 222 Miller units and 215 Miller units and 166 Miller units and 177 Miller units | Miller units (50 µM hormone, plate columns 7-12 (second strain not given), plate rows 1-4 (mtrC), single well): 310 Miller units and 287 Miller units and 255 Miller units and 237 Miller units | Miller units, Mean (50 µM hormone, plate columns 7-12 (second strain), mean of plate rows 1-4 (mtrC)): 272 Miller units | Plate-6 (Testosterone) Miller units, Mean (50 µM, plate column 6, mean of plate rows 5-8): 68 Miller units | Plate-6 (Testosterone) Miller units (50 µM, plate column 6, plate rows 5-8, single wells): 76 Miller units and 71 Miller units and 62 Miller units and 63 Miller units | Plate-6 (Testosterone) Miller units, Mean (50 µM, plate column 12, mean of plate rows 5-8): 57 Miller units | Plate-6 (Testosterone) Miller units (50 µM, single wells): 65 Miller units and 49 Miller units and 56 Miller units and 58 Miller units | Miller units, Mean (Mean of plate rows 1-4, plate columns 1-6 (first strain), 6.25 µM hormone): 69 Miller units | Miller units, Mean (Mean of plate rows 1-4, plate columns 1-6 (first strain), 12.5 µM hormone): 81 Miller units | Miller units, Mean (Mean of plate rows 1-4, plate columns 1-6 (first strain), 25 µM hormone): 98 Miller units | Miller units, Mean (Mean of plate rows 1-4, plate columns 1-6 (first strain), 50 µM hormone): 117 Miller units | Miller units, Mean (Mean of plate rows 1-4, plate columns 7-12 (second strain), 6.25 µM hormone): 96 Miller units | Miller units, Mean (Mean of plate rows 1-4, plate columns 7-12 (second strain), 12.5 µM hormone): 102 Miller units | Miller units, Mean (Mean of plate rows 1-4, plate columns 7-12 (second strain), 25 µM hormone): 112 Miller units | Miller units, Mean (Mean of plate rows 1-4, plate columns 7-12 (second strain), 50 µM hormone): 119 Miller units | Miller units, Mean [1]: 81 Miller units | Miller units, single replicate [1]: 103 Miller units and 88 Miller units | Miller units, single replicate (WT, testosterone 12.5 µM, right block Plate-4): 126 Miller units | Miller units, Mean [2]: 130 Miller units | Miller units, single replicate [2]: 144 Miller units and 138 Miller units | Miller units, Mean [3]: 134 Miller units | Miller units, single replicate [3]: 161 Miller units and 150 Miller units | induction of mtrC expression (complemented (MtrR+) strains, increasing hormone): could be induced | Miller units, Mean [4]: 47 Miller units | Miller units, single replicate [4]: 46 Miller units | Miller units, Mean [5]: 55 Miller units | Miller units, single replicate [5]: 56 Miller units | Miller units, Mean (fourth strain (lower plate half, wells 7-12; not named), testosterone 25 µM, right block Plate-4): 85 Miller units | Miller units, Mean (fourth strain (lower plate half, wells 7-12; not named), testosterone 50 µM, right block Plate-4): 79 Miller units | induction of mtrC expression (loss of MtrR or MtrR-D171A strain): abrogated | Miller units, Mean (mtrC-lacZ, WT, 6.25 µM hormone): 141 Miller units | Miller units, Mean (mtrC-lacZ, WT, 12.5 µM hormone): 166 Miller units | Miller units, Mean (mtrC-lacZ, WT, 25 µM hormone): 178 Miller units | Miller units, Mean (mtrC-lacZ, WT, 50 µM hormone): 195 Miller units | Miller units [6]: 162 Miller units | β-galactosidase activity (Miller units) [6]: 162 Miller units and 167 Miller units and 161 Miller units and 191 Miller units | Miller units [7]: 176 Miller units | β-galactosidase activity (Miller units) [7]: 176 Miller units and 177 Miller units and 161 Miller units and 186 Miller units | Miller units [8]: 185 Miller units | β-galactosidase activity (Miller units) [8]: 185 Miller units and 179 Miller units and 168 Miller units and 147 Miller units | Miller units [9]: 166 Miller units | β-galactosidase activity (Miller units) [9]: 166 Miller units and 158 Miller units and 156 Miller units | Miller units [10]: 108 Miller units and 127 Miller units and 114 Miller units and 153 Miller units | β-galactosidase activity (Miller units) [10]: 108 Miller units and 127 Miller units and 114 Miller units and 153 Miller units | Miller units [11]: 125 Miller units and 124 Miller units and 120 Miller units and 149 Miller units | β-galactosidase activity (Miller units) [11]: 125 Miller units and 124 Miller units and 120 Miller units and 149 Miller units | Miller units [12]: 133 Miller units and 137 Miller units and 127 Miller units | β-galactosidase activity (Miller units) [12]: 133 Miller units and 137 Miller units and 127 Miller units | Miller units [13]: 146 Miller units and 140 Miller units and 175 Miller units | β-galactosidase activity (Miller units) [13]: 146 Miller units and 140 Miller units and 175 Miller units | β-galactosidase activity (Miller units) (mtrC-lacZ, ΔmtrR strain, 6.25 µM hormone, single replicate): 246 Miller units | β-galactosidase activity (Miller units) (mtrC-lacZ, ΔmtrR strain, 12.5 µM hormone, single replicate): 237 Miller units | β-galactosidase activity (Miller units) (mtrC-lacZ, ΔmtrR strain, 25 µM hormone, single replicate): 289 Miller units | β-galactosidase activity (Miller units) (mtrC-lacZ, ΔmtrR strain, 50 µM hormone, single replicate): 255 Miller units | Miller units, Mean (mtrC-lacZ, ΔmtrR, 6.25 µM hormone): 265 Miller units | Miller units, Mean (mtrC-lacZ, ΔmtrR, 12.5 µM hormone): 244 Miller units | Miller units, Mean (mtrC-lacZ, ΔmtrR, 25 µM hormone): 276 Miller units | Miller units, Mean (mtrC-lacZ, ΔmtrR, 50 µM hormone): 272 Miller units | β-galactosidase activity, Mean (1 µM): 178 Miller units | β-galactosidase activity, single replicate (1 µM): 184 Miller units and 192 Miller units and 127 Miller units and 209 Miller units | β-galactosidase activity, Mean (10 µM): 206 Miller units | β-galactosidase activity, single replicate (10 µM): 290 Miller units and 186 Miller units and 155 Miller units and 194 Miller units | β-galactosidase activity, single replicate (25 µM): 208 Miller units and 213 Miller units and 178 Miller units and 198 Miller units | β-galactosidase activity, Mean (50 µM): 224 Miller units | β-galactosidase activity, single replicate (50 µM): 262 Miller units and 219 Miller units and 198 Miller units and 217 Miller units | β-galactosidase activity, Mean (100 µM): 238 Miller units | β-galactosidase activity, single replicate (100 µM): 255 Miller units and 223 Miller units and 213 Miller units and 260 Miller units | Miller units, Mean (mtrCDE, WT, testosterone 1 µM, left block Plate-4): 138 Miller units | Miller units, Mean (mtrCDE, WT, testosterone 10 µM, left block Plate-4): 235 Miller units | Miller units, Mean (mtrCDE, WT, testosterone 25 µM, left block Plate-4): 264 Miller units | Miller units, Mean (mtrCDE, WT, testosterone 50 µM, left block Plate-4): 229 Miller units | Miller units, Mean (mtrCDE, WT, testosterone 100 µM, left block Plate-4): 248 Miller units | Miller units, Mean [14]: 157 Miller units | Miller units, single replicate [14]: 182 Miller units | Miller units, Mean [15]: 190 Miller units | Miller units, single replicate [15]: 196 Miller units | Miller units, Mean [16]: 192 Miller units | Miller units, single replicate [16]: 225 Miller units and 177 Miller units | Miller units, Mean [17]: 201 Miller units | Miller units, single replicate [17]: 192 Miller units and 186 Miller units | Miller units, Mean [18]: 240 Miller units | Miller units, single replicate [18]: 256 Miller units and 229 Miller units | Miller units, Mean (mtrCDE, third strain (lower plate half, wells 1-6; not named), testosterone 1 µM, left block Plate-4): 107 Miller units | Miller units, Mean (mtrCDE, third strain (lower plate half, wells 1-6; not named), testosterone 10 µM, left block Plate-4): 177 Miller units | Miller units, Mean (mtrCDE, third strain (lower plate half, wells 1-6; not named), testosterone 25 µM, left block Plate-4): 181 Miller units | Miller units, Mean (mtrCDE, third strain (lower plate half, wells 1-6; not named), testosterone 50 µM, left block Plate-4): 213 Miller units | Miller units, Mean (mtrCDE, third strain (lower plate half, wells 1-6; not named), testosterone 100 µM, left block Plate-4): 227 Miller units | Miller units, Mean (mtrCDE, ΔmtrR, testosterone 1 µM, left block Plate-4): 334 Miller units | Miller units, Mean (mtrCDE, ΔmtrR, testosterone 10 µM, left block Plate-4): 358 Miller units
